The text below walks through data of patent US5378723A (priority 1994, dated 1995).

SMILES strings stand for the structures. “Also recorded” adds a separate entry of the source. Like-named read-outs stand apart in the source and are kept apart here.

Assay [1] has as its system cholinesterase (ChE). The note with it: cited from earlier work.
The subject of assay [2] is cholinesterase (ChE). The assay is classed as biochemical.
A further assay relates to neuromuscular AChR. The note with it: natural isomer; cited from earlier work.
The subject of another assay is AChE. It is filed as in vivo, rat. The note with it: for inhibiting properties and persistence: dialkylcarbamate vs mono-substituted carbamate.
The target in the next assay is T1, human plasma BChE (Homo sapiens, UniProt P06276).
T1 construct: the plasma was separated and diluted; from tissue; host or cells: human plasma from freshly collected blood, diluted 1:125
Briefly: biochemical.

The target in the next assay is T2, human erythrocyte AChE (Homo sapiens, UniProt P22303).
T2 construct: Erythrocytes were washed three times in isotonic saline, lysed; from tissue; host or cells: human erythrocytes from freshly collected blood, washed, lysed in 0.5% Triton-X
Briefly: biochemical.

Setting [3] is: AChE vs BChE, in vitro, biological standards.
Where [4] appears, read: AChE vs BChE, in vitro, used as biological standards in this art area.

The IC50 is the midpoint of a concentration-inhibition curve. Low readings indicate higher potency, high ones lower potency.

T2 sequence (P22303-2 with tags, fused parts or gaps limits assumed): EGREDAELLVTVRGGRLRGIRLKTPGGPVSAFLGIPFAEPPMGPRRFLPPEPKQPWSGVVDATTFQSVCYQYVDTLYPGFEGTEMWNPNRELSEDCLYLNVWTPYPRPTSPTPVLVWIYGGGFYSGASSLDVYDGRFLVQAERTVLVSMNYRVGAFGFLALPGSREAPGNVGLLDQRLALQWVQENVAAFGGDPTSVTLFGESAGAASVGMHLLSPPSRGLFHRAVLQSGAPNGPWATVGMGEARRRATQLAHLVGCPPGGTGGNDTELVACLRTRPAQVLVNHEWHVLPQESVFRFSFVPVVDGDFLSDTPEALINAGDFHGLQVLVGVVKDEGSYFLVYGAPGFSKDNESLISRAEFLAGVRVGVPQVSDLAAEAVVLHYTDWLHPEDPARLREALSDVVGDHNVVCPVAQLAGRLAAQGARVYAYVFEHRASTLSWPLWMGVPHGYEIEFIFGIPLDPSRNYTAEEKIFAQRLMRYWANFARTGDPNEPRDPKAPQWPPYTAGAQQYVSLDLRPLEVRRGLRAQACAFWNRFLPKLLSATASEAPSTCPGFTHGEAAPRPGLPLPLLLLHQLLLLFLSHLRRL
T1 sequence (P06276 29-602): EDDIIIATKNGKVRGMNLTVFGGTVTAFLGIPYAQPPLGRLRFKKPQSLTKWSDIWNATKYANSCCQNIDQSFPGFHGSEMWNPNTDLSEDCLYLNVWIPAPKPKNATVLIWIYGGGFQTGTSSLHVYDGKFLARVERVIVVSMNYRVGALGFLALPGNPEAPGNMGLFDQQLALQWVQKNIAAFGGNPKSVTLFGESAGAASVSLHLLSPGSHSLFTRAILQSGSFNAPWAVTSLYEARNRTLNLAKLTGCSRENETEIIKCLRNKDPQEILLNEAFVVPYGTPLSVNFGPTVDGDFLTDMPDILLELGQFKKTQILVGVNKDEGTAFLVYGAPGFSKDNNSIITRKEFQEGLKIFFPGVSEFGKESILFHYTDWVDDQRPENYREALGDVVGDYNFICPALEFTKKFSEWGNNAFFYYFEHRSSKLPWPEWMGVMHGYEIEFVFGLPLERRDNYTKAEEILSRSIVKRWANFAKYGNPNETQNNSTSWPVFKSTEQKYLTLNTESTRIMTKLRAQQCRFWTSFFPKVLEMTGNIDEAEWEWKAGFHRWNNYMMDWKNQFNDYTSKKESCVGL

With `CNC(=O)Oc1ccc2c(c1)[C@@]1(C)CCN(C)[C@H]1N2C` [(+)-physostigmine], in the assay with cholinesterase (ChE) [1], the “inhibition of cholinesterase (ChE)” value is recorded as “only negligible inhibition; also recorded: only negligible ChE inhibitory activity”.
As for `CNC(=O)Oc1ccc2c(c1)[C@]1(C)CCN[C@@H]1N2C` [(-)-N(1)-Norphysostigmine], the “inhibition of AChE and BChE in vitro, comparison” value (from here on “inhibition of AChE and BChE”) in the assay with cholinesterase (ChE) [2] (setting [3]) and in the assay on cholinesterase (ChE) [1] (setting [4]) was “similarly at similar concentrations” each time.
Consider `CNC(=O)Oc1ccc2c(c1)[C@]1(C)CCN(C)[C@@H]1N2C` [(-)-physostigmine], for which the “inhibition of AChE and BChE” value in the assay on cholinesterase (ChE) [2] is “similarly at similar concentrations”. Further, in the assay on cholinesterase (ChE) [1], the “inhibition of AChE and BChE” value is “similarly at similar concentrations”; the “inhibition of cholinesterases in vitro and in vivo” value is “potent inhibitors of cholinesterases in vitro and in vivo”. Besides, the “properties at the neuromuscular AChR” value in the assay on neuromuscular AChR is “blocking properties as well as agonist properties”. Also, in the assay with AChE (rat, in vivo, iv), the “duration of action of AChE inhibition” value is listed as “duration of action is short” and the “in vivo inhibition of AChE” value is “good inhibition properties”.
Regarding `CNC(=O)Oc1ccc2c(c1)[C@]1(C)CCO[C@@H]1N2C` [(-)-physovenine], the “inhibition of AChE and BChE” value in the assay with cholinesterase (ChE) [2] (setting [3]) and in the assay on cholinesterase (ChE) [1] (setting [4]) was “similarly at similar concentrations” each time. Besides, in the assay with cholinesterase (ChE) [1] (prior art), the “inhibition of cholinesterases in vitro and in vivo” value was “potent inhibitors of cholinesterases in vitro and in vivo”. This compound returned an IC50 at human plasma BChE of 2.7 ± 1.4 nM.
Turning to `CNC(=O)Oc1ccc2c(c1)[C@]1(C)CCS[C@@H]1N2C` [(-)-thiaphysovenine], the “inhibiting properties and persistence” value with AChE is listed as “good inhibition properties but does not persist”. Further, in the assay with AChE (rat plasma, i.v., 5 mg/kg, 480 minute period, FIG. 2), the “duration of action / persistence of AChE inhibition” value was “short duration of action”. Moreover, in the assay with AChE (rat plasma, i.v., FIG. 1), the “duration of action of AChE inhibition” value was “duration of action is short” and the “in vivo inhibition of AChE” value is “good inhibition properties”.
Take `CCCCNC(=O)Oc1ccc2c(c1)[C@]1(C)CCS[C@@H]1N2C` [Ex. 1, (-)-3,3a, 8,8a-tetrahydro-3a, 8-dimethyl-2H-thieno-[2,3-b]indole-5-ol butyl carbamate]: the results for the IC50 on human plasma BChE and against human erythrocyte AChE were 0.7 ± 0.1 nM and 13.5 ± 1.5 nM, respectively.
`CCCCCCCNC(=O)Oc1ccc2c(c1)[C@]1(C)CCS[C@@H]1N2C` [Ex. 2, (-)-3,3a,8,8a-tetrahydro-3a,8-dimethyl-2H-thieno[2,3-b]indole-5-ol heptylcarbamate]: the IC50 came to 6.8 ± 1.3 nM against human plasma BChE and 25.7 ± 2.8 nM against human erythrocyte AChE.
In the same order, the values of `CN1c2ccc(OC(=O)Nc3ccccc3)cc2[C@]2(C)CCS[C@H]12` [Ex. 3, (-)-3,3a,8,8a-tetrahydro-3a,8-dimethyl-2H-thieno[2,3-b]indole-5-ol phenylcarbamate] are 1660 ± 354 nM and 27.2 ± 7.1 nM.
With `Cc1ccccc1NC(=O)Oc1ccc2c(c1)[C@]1(C)CCS[C@@H]1N2C` [Ex. 4, (-)-3,3a,8,8a-tetrahydro-3a,8-dimethyl;-2H-thieno[2,3-b]indole-5-ol 2'-methylphenylcarbamate], the values for the half-inhibitory concentration (IC50) at human plasma BChE and at human erythrocyte AChE were 5280 ± 354 nM and 29 ± 5.6 nM, respectively.
Turning to `CCc1ccccc1NC(=O)Oc1ccc2c(c1)[C@]1(C)CCS[C@@H]1N2C` [Ex. 5, (-)-3,3a,8,8a-tetrahydro-3a,8-dimethyl-2H-thieno[2,3-b]indole-5-ol 2'-ethylphenylcarbamate], the IC50 on human plasma BChE was 3430 ± 259 nM; at human erythrocyte AChE, 30.1 ± 0.2 nM.
As to `CC(C)c1ccccc1NC(=O)Oc1ccc2c(c1)[C@]1(C)CCS[C@@H]1N2C` [Ex. 6, (-)-3,3a,8,8a-tetrahydro-3a,8-dimethy-2H-thieno[2,3-b]indole-5-ol 2'-isopropylphenylcarbamate], the values for the IC50 against human plasma BChE and at human erythrocyte AChE were 963 ± 106 nM and 25.5 ± 3.3 nM, respectively.
For `CC(C)c1ccc(NC(=O)Oc2ccc3c(c2)[C@]2(C)CCS[C@@H]2N3C)cc1` [Ex. 7, (-)-3,3a,8,8a-tetrahydro-3a,8-dimethyl-2H-thieno[2,3-b]indole-5-ol 4'-isopropylphenylcarbamate] the same measures were 45.3 ± 12.4 nM and greater than 10000 nM.
As to `Cc1ccc(NC(=O)Oc2ccc3c(c2)[C@]2(C)CCS[C@@H]2N3C)c(C)c1` [Ex. 8, (-) -3,3a,8,8a-tetrahydro-3a,8-dimethyl-2H-thieno[2,3-b]indole-5-ol 2',4'-dimethylphenylcarbamate], the 50% inhibitory concentration (IC50) was determined as 1870 ± 291 nM against human plasma BChE and 26.3 ± 3.8 nM on human erythrocyte AChE.
`CN(C)C(=O)Oc1ccc2c(c1)[C@]1(C)CCS[C@@H]1N2C` [Ex. 9, (-)-3,3a,8,8a-tetrahydro-3a,8-dimethyl-2H-thieno[2,3-b]indole-5-ol N,N-dimethylcarbamate]: the 50% inhibitory concentration (IC50) against human plasma BChE came to 22.5 ± 0.1 nM; on human erythrocyte AChE, 197 ± 34.1 nM. The “inhibiting properties and persistence” value with AChE is given as “longlasting inhibiting properties”.
